Values after ≈ are worked out from the molar mass of the structure shown. Read-outs that look alike come from different tables or passages of the source.
Key:
[1] = system: standard and "wild" strains of M. tuberculosis; test: Tuberculostatic activity, all M. tuberculosis strains (overall); assay type: cell-based; details: Mycobacterium tuberculosis, H37RV, read-out: MIC (over M. tuberculosis strains)
[2] = system: M. tuberculosis standard H37Rv strain; test: Tuberculostatic activity, test-tube dilution; assay type: cell-based; details: Mycobacterium tuberculosis, read-out: MIC M. tuberculosis Standard H37Rv Strain
[3] = system: M. tuberculosis isoniazid-sensitive strain (spec. 192); test: Tuberculostatic activity, test-tube dilution; assay type: cell-based; details: Mycobacterium tuberculosis, read-out: MIC M. tuberculosis Isoniazid-Sensitive Strain
HL-60 = test: Antiproliferative MTT assay, HL-60; assay type: cell-based, human; details: for IC50: Homo sapiens, read-out: IC50 HL-60; for SI HL-60: SI = IC50 BALB/3T3 / IC50 HL-60
Description: (§1) Four human cancer cell lines and one normal cell line were used to evaluate anticancer activity of SAL and its N-benzyl amides: human acute promyelocytic leukemia (HL-60) and its vincristine resistant subline (HL-60/vinc), human colon adenocarcinoma cell lines sensitive (LoVo) and resistant to doxorubicin (LoVo/dx) as well as also normal murine embryonic fibroblast cell line (BALB/3T3). The BALB/3T3 cell line was purchased from the American Type Culture Collection (ATCC Rockville, MD, USA), HL-60 cell line from European Type Culture Collection by courtesy of Professor Spik and Dr Mazurier (Laboratory of Biological Chemistry USTL, Lille, France) and HL-60/vinc, LoVo and LoVo/dx by courtesy of Prof. E. Borowski (Technical University of Gdańsk, Gdańsk, Poland). All the cell lines are maintained in the Institute of Immunology and Experimental Therapy (IIET), Wrocław, Poland.
(§2) Human leukemia cells were cultured in ISCOVE medium (IIET, Wroclaw, Polond) containing 10% fetal bovine serum and 2 mM L-glutamine (Sigma Aldrich) and 1 µg/100 mL […] for HL-60/vinc (Sigma Aldrich). Human colon adenocarcinoma cell lines were cultured in mixture of OptiMEM and RPMI 1640 (1:1) medium (IIET) supplemented with 5% fetal bovine serum (Thermo Fisher Scientific, Waltham, MA, USA), 2 mM L-glutamine, 1 mM sodium pyruvate (Sigma Aldrich) and 10 µg/100 mL doxorubicin for LoVo/dx (Sigma Aldrich). Murine embryonic fibroblast cells were cultured in Dulbecco medium (Gibco, Darmstadt, Germany) supplemented with 10% fetal bovine serum (Thermo Fisher Scientific) and 2 mM L-glutamine (Sigma Aldrich). All culture media contained antibiotics: 100 U/mL penicillin (Sigma Aldrich) and 100 µg/mL streptomycin (Polfa-Tarchomin, City, Poland). All cell lines were cultured during entire experiment in humid atmosphere at 37 °C and 5% CO2.
(§3) Twenty four hours before adding the tested compounds all cell lines were seeded in 96-well plates (Sarstedt, Nümbrecht, Germany) in appropriate media with 10^4 cells per well. All cell lines were exposed to each tested agent at four different concentrations from the range 100 to 0.1 µg/mL for 72 h. The cells were also exposed to the reference drugs: cisplatin (Accord, London, UK) and doxorubicin hydrochloride (Fluka, St. Louis, MO, USA). Additionally, all cell lines were exposed to DMSO (the solvent used for tested compounds, Sigma Aldrich) at the concentrations corresponding to those in the tested agent dilutions. For adherent cells sulphorodamine B assay was performed and MTT assay for leukemia cells.
(§4) Proliferation inhibition of leukemia cells by tested compounds was measured by means of MTT assay. Thus, 20 µL of 3-(4,5-dimethylthiazol-2-yl)-2,5-diphenyl tetrazolium bromide solution (Sigma Aldrich) were added to each well and plates were left in cell incubator for 4 h to allow the cells to metabolize yellow MTT to blue formazan. Then, the lysing mixture consisting of 225 mL dimethylformamide, 67.5 g sodium dodecyl sulfate (both from Sigma Aldrich) and 275 mL of distilled water was added in 80 µL volume per well. Plates were incubated for 24 h for the formazan crystals to be released from cells, dissolved and then absorbance of each well was read at Synergy H4 photometer (BioTek Instruments) at 570 nm wavelength.
(§5) Results are presented as mean IC50 (concentration of the tested compound that inhibits cell proliferation by 50%) ± standard deviation. IC50 values were calculated in Cheburator 1.0.2, Dmitry Nevozhay software for each experiment. Compounds at each concentration were tested in triplicates in single experiment and each experiment was repeated at least three times independently. The IR was defined as the ratio of IC50 for a given compound calculated for resistant cell line to that measured for its parental drug sensitive cell line (Table 4).

LoVo/dx = test: Antiproliferative SRB assay, LoVo/dx; assay type: cell-based, human; details: for IC50: Homo sapiens, LoVo/DX, 72 h, read-out: IC50 LoVo/dx; for IR LoVo/DX: IR = IC50 LoVo/dx / IC50 LoVo; for SI LoVo/DX: SI = IC50 BALB/3T3 / IC50 LoVo/dx
Description: as §1, §2, §3
(§6) After 72 h of incubation with tested compounds the cells were fixed in situ by gently adding of 50 µL per well of cold 50% trichloroacetic acid TCA (Avantor Performance Materials, City, Poland) and were incubated at 4 °C for 1 h. Then the wells were washed four times with water and air-dried. Next, 50 µL of 0.2% solution of sulphorodamine B (Sigma Aldrich) in 1% acetic acid (Avantor Performance Materials) were added to each well and plates were incubated at room temperature for 0.5 h. After incubation time, unbound dye was removed by washing plates four times with 1% acetic acid, whereas the stain bound to cells was solubilized with 150 µL of 10 mM Tris base (Sigma Aldrich). Absorbance of each solution was read at Synergy H4 photometer (BioTek Instruments, Winooski, VT, USA) at 540 nm wavelength.
as §5

LoVo = test: Antiproliferative SRB assay, LoVo; assay type: cell-based, human; details: for IC50: Homo sapiens, LoVo, 72 h, read-out: IC50 LoVo; for SI LoVo: SI = IC50 BALB/3T3 / IC50 LoVo
Description: as §1, §2, §3, §6, §5

HL-60/vinc = test: Antiproliferative MTT assay, HL-60/vinc; assay type: cell-based, human; details: for IC50: Homo sapiens, HL60/vinc, 72 h, read-out: IC50 HL-60/vinc; for IR HL-60/vinc: IR = IC50 HL-60/vinc / IC50 HL-60; for SI HL-60/vinc: SI = IC50 BALB/3T3 / IC50 HL-60/vinc
Description: as §1, §2, §3, §4, §5

[4] = system: HL-60, HL-60/vinc, LoVo, LoVo/dx; test: Antiproliferative assays, all four cancer cell lines (range given); assay type: cell-based; details: Homo sapiens, read-out: IC50 (range over the cancer cell lines)
Description: as §1, §2, §3, §6
Proliferation inhibition of leukemia cells by tested compounds was measured by means of MTT assay. […]

[5] = HL-60, 72 h, MTT, mean ± SD, NA: not active in concentrations used (up to 100 µg/mL)

NNC(=O)c1ccncc1 [Isoniazid, isoniazid, reference compound]
MIC [1]: 3.1 to 6.25 µg/mL (≈ 22.6 to 45.6 µM) | MIC ([2]; Youmans' medium, 37 °C, tested 3.1-100 µg/mL): < 3.1 µg/mL | MIC ([3]; wild strain spec. 192, Youmans' medium, 37 °C, tested 3.1-100 µg/mL): < 3.1 µg/mL

CCC(C(=O)NCc1cccc(F)c1)C1CCC(C)C(C(C)C(O)C(C)C(=O)C(CC)C2OC3(C=CC(O)C4(CCC(C)(C5CCC(O)(CC)C(C)O5)O4)O3)C(C)CC2C)O1 (centres unmarked) [F-m]
MIC [2]: 100 µg/mL (≈ 117 µM) | IC50 (HL-60; HL-60, 72 h): 65 ± 35.3 µM | SI HL-60 (HL-60): 0.10 | MIC [3]: > 100 µg/mL | IC50 (LoVo/dx): 3.91 ± 2.1 µM | IR LoVo/DX (LoVo/dx): 0.29 | SI LoVo/DX (LoVo/dx): 1.65 | IC50 (LoVo): 13.5 ± 0.28 µM | SI LoVo (LoVo): 0.48

CCC(C(=O)NCc1ccccc1F)C1CCC(C)C(C(C)C(O)C(C)C(=O)C(CC)C2OC3(C=CC(O)C4(CCC(C)(C5CCC(O)(CC)C(C)O5)O4)O3)C(C)CC2C)O1 (centres unmarked) [F-o]
IC50 (HL-60/vinc): 4.44 ± 1.73 µM | IR HL-60/vinc (HL-60/vinc): 1.22 | SI HL-60/vinc (HL-60/vinc): 1.34 | MIC [2]: 100 µg/mL (≈ 117 µM) | IC50 (HL-60; HL-60, 72 h): 3.63 ± 0.14 µM | SI HL-60 (HL-60): 1.64 | MIC [3]: 50 µg/mL (≈ 58.3 µM) | IC50 [4]: 2.32 to 6.84 µM | IC50 (LoVo/dx): 2.32 ± 0.69 µM | IR LoVo/DX (LoVo/dx): 0.66 | SI LoVo/DX (LoVo/dx): 2.57 | IC50 (LoVo): 3.49 ± 0.59 µM | SI LoVo (LoVo): 1.71

CC[C@H](C(=O)NCc1ccc(Cl)cc1)C1CC[C@H](C)C([C@@H](C)[C@H](O)[C@H](C)C(=O)[C@H](CC)C2O[C@]3(C=C[C@@H](O)C4(CC[C@@](C)(C5CC[C@](O)(CC)[C@H](C)O5)O4)O3)[C@H](C)C[C@@H]2C)O1 (some centres unmarked) [Cl-p, p-chlorobenzyl amide of salinomycin]
IC50 (HL-60/vinc): 46.8 ± 12.5 µM | IR HL-60/vinc (HL-60/vinc): 1.29 | SI HL-60/vinc (HL-60/vinc): 0.16 | MIC [2]: 100 µg/mL (≈ 114 µM) | IC50 (HL-60; [5]): 36.2 ± 3.03 µM | SI HL-60 (HL-60): 0.21 | MIC [3]: 100 µg/mL (≈ 114 µM) | IC50 (LoVo/dx): 16.6 ± 4.81 µM | IR LoVo/DX (LoVo/dx): 0.86 | SI LoVo/DX (LoVo/dx): 0.46 | IC50 (LoVo; SRB, mean ± SD): 19.3 ± 4.03 µM | SI LoVo (LoVo): 0.40

CC[C@H](C(=O)NCc1ccccc1Cl)C1CC[C@H](C)C([C@@H](C)[C@H](O)[C@H](C)C(=O)[C@H](CC)C2O[C@]3(C=C[C@@H](O)C4(CC[C@@](C)(C5CC[C@](O)(CC)[C@H](C)O5)O4)O3)[C@H](C)C[C@@H]2C)O1 (some centres unmarked) [Cl-o]
IC50 (HL-60/vinc): 3.99 ± 1.47 µM | IR HL-60/vinc (HL-60/vinc): 1.25 | SI HL-60/vinc (HL-60/vinc): 1.50 | MIC [2]: 100 µg/mL (≈ 114 µM) | IC50 (HL-60; [5]): 3.18 ± 0.69 µM | SI HL-60 (HL-60): 1.89 | MIC [3]: 50 µg/mL (≈ 57.2 µM) | IC50 ([4]; range over HL-60, HL-60/vinc, LoVo, LoVo/dx): 2.32 to 6.84 µM | IC50 (LoVo/dx): 2.91 ± 0.22 µM | IR LoVo/DX (LoVo/dx): 0.76 | SI LoVo/DX (LoVo/dx): 2.06 | IC50 (LoVo; SRB, mean ± SD): 3.85 ± 0.05 µM | SI LoVo (LoVo): 1.56

Source: PMC6271077, “Synthesis, Anticancer and Antibacterial Activity of Salinomycin N-Benzyl Amides” (Molecules, 2014)
